# Data taken from article PMC6030077, “Dual role of HDAC10 in lysosomal exocytosis and DNA repair promotes neuroblastoma chemoresistance” (Scientific Reports, 2018).
# “Also recorded” adds a separate entry of the source.
# Columns and labels:
# [1] = system: BE(2)-C cells; test: Flow cytometric analysis of cell surface LAMP-1 (lysosomal exocytosis); format: cell-based, human; details: 6 h tubastatin A 7.5 µM, bufexamac 30 µM, tubacin 7.5 µM, vacuolin-1 10 µM 1 h
# Description: (§1) Cells were dissociated from dishes using non-enzymatic cell dissociation reagent for five minutes. Cells were counted using a ViCell XR automatic cell counter (Beckmann Coulter) and 2.5 ∗ 10^5 cells were transferred into a pre-cooled 96-well round bottom plate (TPP92097). Cells were stained for 1.5–2 hours on ice with primary anti P-gp (Biozol ABA-AB00143-1.1), LAMP-1 (H4A3, DHSB) antibody or isotype control (DLN-05794, Dianova, Barcelona, Spain) and for 1 hour with APC-labeled secondary antibody (Dianova 115-136-068). Cells were washed three times in FACS buffer (5% FBS in PBS) after each antibody incubation step. For evaluation of DNA double-strand breaks, cells were detached from dishes using trypsin, counted using a ViCell XR automatic cell counter (Beckmann Coulter) and transferred into a pre-cooled 96-well round bottom plate (4 ∗ 10^6 cells/well). Cells were fixed and permeabilized using the eBioscience^TM Foxp3/Transcription Factor Staining Buffer Set (Thermo Fisher Scientific). Cells were stained for 1.5 h with Phospho-Histone H2A.X (S139) primary antibody (CST #9718) and for 1 h in Alexa-488-labeled secondary antibody (ThermoFisher A-11008). Cells were washed three times in 1× permeabilization buffer after each antibody incubation step and fluorescence was quantified on a BD FACSCanto II platform.
# [2] = system: BE(2)-C cells; test: Flow cytometric quantification of intracellular doxorubicin accumulation, BE(2)-C; format: cell-based, human; details: for intracellular doxorubicin after co-treatment: 48 h, bufexamac 30 µM, tubastatin A 7.5 µM, tubacin 7.5 µM
# Description: (§2) For flow cytometric quantification of intracellular doxorubicin after HDAC6/10 inhibition, BE(2)-C, SK-N-AS, IMR-32, HAP1 wild type and HDAC10 knockout cells were seeded in 6-well dishes at a density of 1.5 ∗ 10^5 cells/well (BE(2)-C and SK-N-AS, HAP1) and 3 ∗ 10^5 cells/well (IMR-32). Cells were treated with 25 ng/ml, 50 ng/ml, 100 ng/ml or 1 µg/ml doxorubicin, respectively, for 3–48 h (see respective figure legend). Where indicated, cells were co-treated with HDAC6/10 or lysosomal inhibitors. In case of co-treatment with vacuolin-1, vacuolin-1 was directly added to cells under doxorubicin treatment 1 h or 24 h prior to analysis. Flow cytometric quantification of intracellular doxorubicin after HDAC6, HDAC10 or P-glycoprotein knockdown in BE(2)-C cells was performed 5 days (P-glycoprotein) or 6 days (HDAC6/10) after transfection with siRNA. To that end, cells were seeded 3–4 days after transfection into 6-well dishes at 1.5 ∗ 10^5 cells per well and treated with 100 ng/ml doxorubicin +/− HDAC6/10 and lysosomal inhibitors for the last 24 h. After doxorubicin treatment, BE(2)-C, SK-N-AS, IMR-32 and HAP1 cells were washed with ice-cold RPMI w/o phenol-red and detached using Trypsin/EDTA for 3 minutes at 37 °C. Cells were centrifuged, resuspended in RPMI w/o phenol red and doxorubicin fluorescence was quantified on a BD FACSCanto II platform using the PE filter setting.
# [3] = system: BE(2)-C cells; test: Pulse-chase analysis of doxorubicin secretion/retention; format: cell-based, human; details: 12 h pre-treatment, 1 µg/ml doxorubicin 3 h, washout, relative to t0
# Description: To test whether HDAC10 inhibition prolonged the retention of doxorubicin, we used a pulse-chase approach in which BE(2)-C cells were pre-treated over night with HDAC6/10 inhibitors and then loaded with high concentrations of doxorubicin for 3 h (1 µg/ml). After doxorubicin washout, HDAC6/10 or HDAC6 inhibitors were re-added (t0), and intracellular doxorubicin fluorescence was measured at t0, as well as 3 h (t3h) and 6 h (t6h) after doxorubicin removal (Fig. 5h–k). […] In summary, secretion of doxorubicin was slowed down in case of HDAC6/10 inhibition but not by specific HDAC6 inhibition alone.
# as §2
# [4] = system: P-glycoprotein; test: Flow cytometric quantification of cell surface P-gp expression; format: cell-based, human; details: BE(2)-C; 6 h tubastatin A 7.5 µM; vacuolin-1 10 µM 1 h
# Description: as §1
# [5] = system: BE(2)-C cells; test: Flow cytometric analysis of LysoTracker DND-99 staining (lysosomal accumulation); format: cell-based, human; details: for lysosomal accumulation (LysoTracker staining): 24 h, bufexamac 30 µM, tubastatin A 7.5 µM, tubacin 7.5 µM, VPA 1 mM, vacuolin-1 10 µM
# Description: Six days after siRNA transfection or 24 h after treatment with HDAC or lysosomal inhibitors, cells were stained for 1 h with 50 nM LysoTracker® Red DND-99 in medium under standard cell culture conditions. Cells were washed with ice-cold RPMI w/o phenol-red and detached using Trypsin/EDTA for 3 minutes at 37 °C. Cells were centrifuged, resuspended in RPMI w/o phenol red and LysoTracker® Red fluorescence was quantified on a BD FACSCanto II platform using the PE filter setting.
# [6] = system: BE(2)-C cells; test: Flow cytometric analysis of γH2A.X staining (DNA double-strand breaks); format: cell-based, human; details: 24 h, tubastatin A 7.5 µM, vacuolin-1 10 µM; for DSBs (γH2A.X), treatment alone in the absence of doxorubicin: verapamil 10 µM
# Description: as §1, with “Cells were stained for 1.5–2 hours on ice with primary anti P-gp (Biozol ABA-AB00143-1.1), LAMP-1 (H4A3, DHSB) antibody or isotype control (DLN-05794, Dianova, Barcelona, Spain) and for 1 hour with APC-labeled secondary antibody (Dianova 115-136-068).” left out, “Cells were stained for 1.5 h with Phospho-Histone H2A.X (S139) primary antibody (CST #9718) and for 1 h in Alexa-488-labeled secondary antibody (ThermoFisher A-11008).” left out
# [7] = system: proliferating human fibroblasts; test: Flow cytometric analysis of cellular doxorubicin fluorescence, fibroblasts; format: cell-based; details: 100 ng/ml doxorubicin 48 h; tubastatin A 7.5 µM, vacuolin-1 10 µM, verapamil 10 µM
# [8] = system: BE(2)-C cells; test: Cell viability, automated trypan blue exclusion, BE(2)-C; format: cell-based, human; details: 100 ng/ml doxorubicin; for viability of BE(2)-C cells, single treatment: 7.5 µM tubastatin A or vacuolin-1 alone; for viability of BE(2)-C cells, combination with doxorubicin, 24 h, compared to doxorubicin alone: 10 µM verapamil or vacuolin-1
# Description: Adherent cell lines were trypsinized and cells were pooled with corresponding supernatant, centrifuged and resuspended in 1.5 ml cell culture media. Cell viability was measured by automated trypan blue staining with the Vi-Cell XR Cell Viability Analyzer from Beckman Coulter (Krefeld, Germany).
# [9] = system: HDAC6; test: Western blot analysis of tubulin K40 acetylation as a marker for HDAC6 inhibition; format: cell-based, human; details: 24 h; bufexamac 30 µM, tubastatin A 7.5 µM, tubacin 7.5 µM
# Description: Western blot analysis was performed as previously described. The following antibodies were used: anti-HDAC6 (sc-11420, Santa Cruz), anti-HDAC10 (H3413, Sigma), anti-acetylated histone H3 (06-911, Merck Millipore), anti-histone H3 (9715, Cell Signaling Technology, Cambridge UK), anti-LAMP-1 (H4A3, DHSB, Iowa City, IA, USA), anti-LAMP-2 (H4B4; Santa Cruz Biotechnology), anti-acetylated tubulin (6–11B-1; Sigma), anti-tubulin (2148, Cell Signaling Technology), anti P-glycoprotein (13978 S, Cell Signaling Technology) and anti-β-actin (clone AC-15; Sigma).
# [10] = system: BE(2)-C cells; test: Alkaline single cell gel electrophoresis assay (comet assay); format: cell-based, human; details: 18 h, tubastatin A 7.5 µM or doxorubicin 100 ng/ml
# Description: BE(2)-C cells were treated with the HDAC6/10 inhibitor tubastatin A alone or in combination with the genotoxic drug doxorubicin (100 ng/ml doxorubicin, 7.5 µM tubastatin) for 18 h. Untreated cell aliquots and cells irradiated with 5 Gy (^137Cs radiation source, dose rate of 1 Gy min^−1) were used as negative and positive controls, respectively. Cells were subsequently analyzed by the alkaline comet assay as previously described[68],[69] with some modifications. In brief, the cells were mixed with 0.7% low-melting temperature agarose (Biozym), plated on two-well slides (Trevigen), and subsequently lysed overnight. Single cell electrophoresis was performed at 4 °C. Analysis of DNA damage was accomplished by fluorescence microscopy using a fully automated cell scanning system Metafer-4 (Metasystems) as described in[70]. DNA damage was assessed as “Tail DNA in %”. Statistical evaluation of two differently treated cell aliquots was performed with the Mann Whitney test using GraphPad Prism version 5.04 for Windows.
# [11] = system: HDACs 1–3; test: Western blot analysis of histone H3 acetylation; format: cell-based, human; details: 1 mM, 6 h
# Description: Western blot analysis was performed as previously described. […] (b) Western blot analysis of histone H3 […] class IIb HDAC inhibitor tubastatin A, respectively. Numbers below blot indicate histone H3 acetylation normalized to total histone H3 expression and relative to DMSO treated control. Bands of indicated proteins were developed on the same blot. (c) Flow cytometric analysis of LysoTracker DND-99 staining in BE(2)-C cells 24h after treatment with class I HDAC inhibitor VPA and class IIb HDAC inhibitor tubastatin A. Statistical analyses were performed on non-normalized data using paired, two-tailed t-test (***p < 0.001; **0.001 ≤ p < 0.01; *0.01 ≤ p < 0.05). Error bars represent SEM. 3 (1 picture or pasted object on this page, not shown here)
compound,measurement,setting,value
Ic1cccc(/C=N/Nc2nc(N3CCOCC3)nc(N(c3ccccc3)c3ccccc3)n2)c1 [vacuolin-1],cell surface LAMP-1 levels,[1],robustly reduced surface LAMP-1
same,doxorubicin accumulation with lysosomal exocytosis inhibitor,"[2]; 100 ng/ml doxorubicin 48 h, 10 µM vacuolin-1",promoted doxorubicin accumulation
same,retention of intracellular doxorubicin 3 h and 6 h after doxorubicin removal,[3],retained higher levels of intracellular doxorubicin
same,cell surface P-gp levels,[4],slightly increased surface P-gp levels
same,lysosomal accumulation (LysoTracker staining),[5],increased LysoTracker staining
same,"DSBs (γH2A.X), co-treatment with doxorubicin compared to doxorubicin alone",[6]; 100 ng/ml doxorubicin,increased doxorubicin induced DSBs
same,"DSBs (γH2A.X), treatment alone in the absence of doxorubicin",[6],did not induce DSBs on its own
same,intracellular doxorubicin in fibroblasts,[7],did not exhibit strongly increased intracellular doxorubicin
same,"viability of BE(2)-C cells, single treatment",[8],no substantial effect
same,"viability of BE(2)-C cells, combination with doxorubicin, 24 h, compared to doxorubicin alone",[8],strongly reduced cell viability
O=C(CCCCCCC(=O)Nc1ccc([C@H]2O[C@@H](CSc3nc(-c4ccccc4)c(-c4ccccc4)o3)C[C@@H](c3ccc(CO)cc3)O2)cc1)NO [tubacin],intracellular doxorubicin after co-treatment,[2]; 100 ng/ml doxorubicin,did not alter cellular doxorubicin content
same,retention of intracellular doxorubicin 3 h and 6 h after doxorubicin removal,[3],had no effect
same,lysosomal accumulation (LysoTracker staining),[5],did not
same,HDAC6 inhibition (tubulin K40 acetylation),[9],substantially inhibited HDAC6
COc1cccc2c1C(=O)c1c(O)c3c(c(O)c1C2=O)C[C@@](O)(C(=O)CO)C[C@@H]3O[C@H]1C[C@H](N)[C@H](O)[C@H](C)O1 [doxorubicin],"viability of BE(2)-C cells, single treatment",[8],did not substantially reduce cell viability
same,"DSBs in comet assays, single treatment",[10],increased DSBs only trend-wise
COc1ccc(CCN(C)CCCC(C#N)(c2ccc(OC)c(OC)c2)C(C)C)cc1OC (centres unmarked) [verapamil],basal levels of doxorubicin in cells,"[2]; 100 ng/ml doxorubicin 24 h, 10 µM verapamil",increased the basal levels of doxorubicin
same,"DSBs (γH2A.X), treatment alone in the absence of doxorubicin",[6],did not induce DSBs
same,intracellular doxorubicin in fibroblasts,[7],strongly increase doxorubicin accumulation
same,"viability of BE(2)-C cells, combination with doxorubicin, 48 h, compared to doxorubicin alone",[8]; 10 µM verapamil,not significant
same,"viability of BE(2)-C cells, combination with doxorubicin, 24 h, compared to doxorubicin alone",[8],only slightly reduced cell viability
CN(C)Cc1c(C(=O)NCCOc2ccc(C(=O)NO)cc2)oc2ccccc12 [abexinostat],concentrations at which intracellular doxorubicin amounts are increased,"[2]; 100 ng/ml doxorubicin, 24 h co-treatment",greater than or equal to 500 nM
same,concentrations at which lysosomal accumulation is induced,[5]; 24 h treatment,≥ 100 nM
same,EC50,"[5]; Homo sapiens, 24 h treatment, read-out: LysoTracker staining (lysosomal accumulation) EC50",183 nM
CCCCOc1ccc(CC(=O)NO)cc1 [bufexamac],cell surface LAMP-1 levels,[1],reduced surface LAMP-1 levels
same,intracellular doxorubicin after co-treatment,[2]; 100 ng/ml doxorubicin,increased intracellular doxorubicin
same,"intracellular doxorubicin levels, short-term","[2]; 12 h pre-treatment with inhibitor, then 1 µg/ml doxorubicin for 3 h",increased intracellular doxorubicin levels
same,retention of intracellular doxorubicin 3 h and 6 h after doxorubicin removal,[3],retained higher levels of intracellular doxorubicin
same,lysosomal accumulation (LysoTracker staining),[5],caused lysosomal accumulation
same,HDAC6 inhibition (tubulin K40 acetylation),[9],substantially inhibited HDAC6; also recorded: lowest potency against HDAC6
"CCCC(CCC)C(=O)O [VPA, valproic acid]",lysosomal accumulation (LysoTracker staining),[5],did not induce lysosomal accumulation
same,inhibition of HDACs 1–3 (histone H3 acetylation),[11],substantially inhibiting HDACs 1–3
